Experimental data as given in patent publication US7498408B2, “Ryanodine receptor polypeptides” (E. I. du Pont de Nemours and Company, priority 2002, dated 2009).

Experiments:
[1] = biological target: cockroach ryanodine receptor (roach femoral muscle membranes) (Periplaneta americana, UniProt Z9HFG3YSF4); assay: Radioligand displacement ([3H]-GN analog Cpd 1) from roach femoral muscle membranes; settings: read-out: Displacement IC50 (nM) P. americana; displacement of [3H]-Cpd 1, roach muscle membranes, 60 min at 32° C.
Sequence of cockroach ryanodine receptor (roach femoral muscle membranes) (Z9HFG3YSF4 1-5141): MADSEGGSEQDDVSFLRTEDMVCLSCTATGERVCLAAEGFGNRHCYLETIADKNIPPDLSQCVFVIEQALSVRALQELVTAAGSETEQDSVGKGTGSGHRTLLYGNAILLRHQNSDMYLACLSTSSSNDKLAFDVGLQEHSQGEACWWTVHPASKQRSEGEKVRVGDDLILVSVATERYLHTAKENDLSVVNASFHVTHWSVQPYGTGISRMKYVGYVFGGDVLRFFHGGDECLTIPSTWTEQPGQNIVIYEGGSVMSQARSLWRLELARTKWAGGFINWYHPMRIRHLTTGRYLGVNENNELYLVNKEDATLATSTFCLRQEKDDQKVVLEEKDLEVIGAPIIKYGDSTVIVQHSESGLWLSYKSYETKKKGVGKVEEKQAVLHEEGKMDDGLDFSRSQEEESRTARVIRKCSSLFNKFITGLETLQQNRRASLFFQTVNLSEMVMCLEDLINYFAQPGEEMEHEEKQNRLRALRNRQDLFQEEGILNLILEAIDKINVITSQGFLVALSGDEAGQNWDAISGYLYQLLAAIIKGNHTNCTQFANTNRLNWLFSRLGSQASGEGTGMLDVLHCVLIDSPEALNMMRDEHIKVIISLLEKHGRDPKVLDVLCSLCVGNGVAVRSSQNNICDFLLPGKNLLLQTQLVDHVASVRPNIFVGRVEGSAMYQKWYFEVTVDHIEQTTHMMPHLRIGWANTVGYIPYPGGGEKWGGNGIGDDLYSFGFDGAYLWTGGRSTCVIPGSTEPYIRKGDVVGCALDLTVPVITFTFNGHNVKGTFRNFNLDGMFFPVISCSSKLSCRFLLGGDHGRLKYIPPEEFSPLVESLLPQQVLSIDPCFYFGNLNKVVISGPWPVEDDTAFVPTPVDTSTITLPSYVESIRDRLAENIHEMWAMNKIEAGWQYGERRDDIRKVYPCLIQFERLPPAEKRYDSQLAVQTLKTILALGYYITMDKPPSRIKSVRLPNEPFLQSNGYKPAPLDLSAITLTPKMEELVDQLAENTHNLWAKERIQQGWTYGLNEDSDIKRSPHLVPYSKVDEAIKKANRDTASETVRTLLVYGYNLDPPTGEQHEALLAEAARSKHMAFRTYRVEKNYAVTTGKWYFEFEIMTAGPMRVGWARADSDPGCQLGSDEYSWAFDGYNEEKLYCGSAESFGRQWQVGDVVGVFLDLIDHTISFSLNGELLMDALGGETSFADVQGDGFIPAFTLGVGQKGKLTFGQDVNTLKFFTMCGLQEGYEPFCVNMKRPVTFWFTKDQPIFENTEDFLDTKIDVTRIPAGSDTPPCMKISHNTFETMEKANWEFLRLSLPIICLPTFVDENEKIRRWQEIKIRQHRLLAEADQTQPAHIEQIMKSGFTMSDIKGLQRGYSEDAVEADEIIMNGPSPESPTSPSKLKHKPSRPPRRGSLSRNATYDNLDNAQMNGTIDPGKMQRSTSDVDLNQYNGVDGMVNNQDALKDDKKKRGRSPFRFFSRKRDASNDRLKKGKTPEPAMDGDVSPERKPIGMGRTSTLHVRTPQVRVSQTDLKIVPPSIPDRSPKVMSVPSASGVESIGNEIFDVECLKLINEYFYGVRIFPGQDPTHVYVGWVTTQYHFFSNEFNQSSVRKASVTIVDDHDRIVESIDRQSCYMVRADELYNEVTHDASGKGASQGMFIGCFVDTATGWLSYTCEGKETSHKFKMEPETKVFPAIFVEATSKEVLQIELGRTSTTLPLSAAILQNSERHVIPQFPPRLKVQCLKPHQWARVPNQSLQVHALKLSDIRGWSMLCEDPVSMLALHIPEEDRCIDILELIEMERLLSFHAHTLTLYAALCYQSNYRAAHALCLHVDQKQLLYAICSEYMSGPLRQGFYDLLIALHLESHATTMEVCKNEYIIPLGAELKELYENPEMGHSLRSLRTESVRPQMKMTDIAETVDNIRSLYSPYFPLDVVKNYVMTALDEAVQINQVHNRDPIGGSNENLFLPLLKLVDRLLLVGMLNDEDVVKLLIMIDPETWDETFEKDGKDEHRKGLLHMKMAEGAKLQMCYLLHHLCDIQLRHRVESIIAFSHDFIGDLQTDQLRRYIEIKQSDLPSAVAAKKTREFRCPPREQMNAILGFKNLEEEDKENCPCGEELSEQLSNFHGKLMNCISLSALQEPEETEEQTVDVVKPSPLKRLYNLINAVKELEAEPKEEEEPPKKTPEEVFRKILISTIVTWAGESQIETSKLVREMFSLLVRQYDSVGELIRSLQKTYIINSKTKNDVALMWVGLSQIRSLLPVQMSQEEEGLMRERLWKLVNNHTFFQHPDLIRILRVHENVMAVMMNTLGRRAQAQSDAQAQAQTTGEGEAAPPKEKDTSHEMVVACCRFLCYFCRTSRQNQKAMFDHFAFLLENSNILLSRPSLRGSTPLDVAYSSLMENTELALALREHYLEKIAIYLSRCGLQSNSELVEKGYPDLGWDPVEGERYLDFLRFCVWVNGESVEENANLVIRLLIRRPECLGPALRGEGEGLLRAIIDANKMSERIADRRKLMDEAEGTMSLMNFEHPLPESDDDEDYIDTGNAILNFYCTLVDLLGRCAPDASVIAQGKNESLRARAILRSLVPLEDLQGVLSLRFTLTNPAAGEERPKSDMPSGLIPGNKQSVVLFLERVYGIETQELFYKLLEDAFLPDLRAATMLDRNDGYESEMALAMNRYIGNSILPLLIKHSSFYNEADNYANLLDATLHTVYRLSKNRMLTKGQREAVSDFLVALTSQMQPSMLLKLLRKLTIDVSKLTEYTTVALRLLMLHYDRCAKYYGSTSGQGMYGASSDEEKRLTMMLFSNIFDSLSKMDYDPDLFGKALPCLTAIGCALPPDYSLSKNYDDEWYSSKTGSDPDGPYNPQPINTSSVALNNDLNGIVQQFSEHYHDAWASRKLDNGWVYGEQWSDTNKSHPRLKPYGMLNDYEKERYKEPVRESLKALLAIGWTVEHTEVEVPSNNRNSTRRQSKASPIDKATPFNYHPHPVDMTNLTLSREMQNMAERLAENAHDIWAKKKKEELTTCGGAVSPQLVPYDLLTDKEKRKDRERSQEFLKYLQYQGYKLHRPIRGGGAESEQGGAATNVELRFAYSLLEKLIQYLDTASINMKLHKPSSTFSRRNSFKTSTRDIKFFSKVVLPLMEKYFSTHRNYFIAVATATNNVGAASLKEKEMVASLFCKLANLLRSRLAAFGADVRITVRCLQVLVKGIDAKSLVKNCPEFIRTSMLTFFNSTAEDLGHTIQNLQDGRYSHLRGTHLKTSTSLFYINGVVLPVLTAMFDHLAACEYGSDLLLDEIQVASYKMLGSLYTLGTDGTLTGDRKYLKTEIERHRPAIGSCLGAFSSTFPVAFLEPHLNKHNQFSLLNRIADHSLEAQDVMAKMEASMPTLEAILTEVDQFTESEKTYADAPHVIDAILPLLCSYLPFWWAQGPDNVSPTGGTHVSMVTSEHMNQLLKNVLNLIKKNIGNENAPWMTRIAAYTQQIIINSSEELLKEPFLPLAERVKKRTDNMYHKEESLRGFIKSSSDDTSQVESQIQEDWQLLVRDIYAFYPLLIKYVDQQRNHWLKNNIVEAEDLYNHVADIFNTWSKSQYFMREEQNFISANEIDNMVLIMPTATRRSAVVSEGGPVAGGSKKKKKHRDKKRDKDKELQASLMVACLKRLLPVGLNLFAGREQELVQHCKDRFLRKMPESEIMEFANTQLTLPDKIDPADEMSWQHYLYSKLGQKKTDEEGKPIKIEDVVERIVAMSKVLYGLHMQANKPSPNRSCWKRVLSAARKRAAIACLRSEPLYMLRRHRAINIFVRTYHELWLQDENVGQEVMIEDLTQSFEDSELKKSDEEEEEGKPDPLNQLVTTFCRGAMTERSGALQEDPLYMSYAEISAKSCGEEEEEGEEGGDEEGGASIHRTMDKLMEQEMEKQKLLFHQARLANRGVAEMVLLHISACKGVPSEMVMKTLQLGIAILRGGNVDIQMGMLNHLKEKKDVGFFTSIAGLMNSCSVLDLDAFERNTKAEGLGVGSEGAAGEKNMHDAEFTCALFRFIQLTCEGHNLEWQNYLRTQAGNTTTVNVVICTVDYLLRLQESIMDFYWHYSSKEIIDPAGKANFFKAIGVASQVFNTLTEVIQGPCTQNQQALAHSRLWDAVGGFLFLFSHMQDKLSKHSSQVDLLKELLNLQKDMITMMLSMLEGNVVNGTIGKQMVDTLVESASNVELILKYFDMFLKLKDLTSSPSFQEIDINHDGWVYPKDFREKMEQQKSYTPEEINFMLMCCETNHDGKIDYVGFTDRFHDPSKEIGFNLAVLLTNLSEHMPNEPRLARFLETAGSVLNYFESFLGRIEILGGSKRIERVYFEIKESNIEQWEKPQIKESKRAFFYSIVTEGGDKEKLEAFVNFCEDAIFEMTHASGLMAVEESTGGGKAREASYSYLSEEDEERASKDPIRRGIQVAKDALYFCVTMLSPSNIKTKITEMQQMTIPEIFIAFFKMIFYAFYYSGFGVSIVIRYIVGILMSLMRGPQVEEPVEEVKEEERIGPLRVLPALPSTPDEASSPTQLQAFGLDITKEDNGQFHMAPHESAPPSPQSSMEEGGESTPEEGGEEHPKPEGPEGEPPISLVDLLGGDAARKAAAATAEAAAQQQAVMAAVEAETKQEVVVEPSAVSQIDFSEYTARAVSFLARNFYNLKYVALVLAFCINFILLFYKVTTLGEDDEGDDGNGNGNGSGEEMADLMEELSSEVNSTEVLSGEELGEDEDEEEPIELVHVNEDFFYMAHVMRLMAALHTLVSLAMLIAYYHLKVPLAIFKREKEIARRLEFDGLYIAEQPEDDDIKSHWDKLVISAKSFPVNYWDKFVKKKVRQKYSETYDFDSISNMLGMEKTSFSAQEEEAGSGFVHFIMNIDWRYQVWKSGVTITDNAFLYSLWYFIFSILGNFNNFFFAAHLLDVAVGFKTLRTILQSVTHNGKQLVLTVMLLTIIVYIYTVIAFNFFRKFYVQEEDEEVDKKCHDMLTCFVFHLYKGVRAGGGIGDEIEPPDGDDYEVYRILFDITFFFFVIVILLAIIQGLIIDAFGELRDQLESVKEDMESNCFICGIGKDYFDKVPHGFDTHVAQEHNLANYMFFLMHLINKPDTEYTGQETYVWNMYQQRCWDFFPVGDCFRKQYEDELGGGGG
Description: Mid and hind legs from 6-9 week old cockroaches were excised and immediately placed in liquid nitrogen. Excised legs could be stored at −80° C. for several months, if necessary, prior to further fractionation. Typically, membrane preparations started with approximately 55 g (wet weight) of excised legs. All subsequent steps were carried out at 4° C.
The legs were homogenized on ice using a Polytron (Brinkmann Instruments, Westbury, N.Y.) for 2 min at Setting #3. In order to remove all fragments of cuticle, the homogenate was first passed through two layers of cheesecloth and then through one layer of glass wool overlaid on two layers of cheesecloth. On occasion, the cheesecloth clogged with particulates prior to passing all material through. In such cases, fresh cheesecloth (and glass wool) was used for the remainder of the suspension. […] The supernatant was collected and centrifuged for 30 min at 30,000×gmax. The resulting pellet was resuspended in buffer A (1.5 M KCl, 0.3 M sucrose, 0.5 mM CaCl2, 20 mM Tris-HCl, pH 8.0). The membrane suspension was homogenized by hand (about 25 strokes) using a glass-teflon homogenizer. […] Subsequently, the membrane suspension was adjusted to 4 μg protein/μg by addition of buffer A and then stored in 1 ml aliquots at −80° C.
The assay was begun by addition of 25 μl of roach muscle membranes at 2 μg/μl (prepared by thawing and addition of an equal volume of buffer B), and incubation was carried out for 60 min at 32° C. Assays were carried out in triplicate.
The compound was allowed to pre-incubate with the membranes for 10 min at 32° C. […] Assays were carried out in triplicate.
Following incubation, assays were quenched with ice-cold buffer B and immediately filtered on pre-wefted Unifilter 96 GF/B filter microplates using a Unifilter 96 Harvester (PerkinElmer™, Boston, Mass.). Each assay well was then washed 10 times with buffer B, and collected on the same filter microplate. The filter microplates were then placed in a vacuum oven at 32° C. for 3 h, following which 50 μl of Microscint 0 (PerkinElmer™, Boston, Mass.) was added to each well. Plates were then heat sealed and counted using a Topcount microplate scintillation counter (PerkinElmer™, Boston, Mass.).

[2] = tested on: recombinant Heliothis virescens ryanodine receptor (expressed in Sf9 cells); assay: Calcium release assay in Sf9 cells expressing recombinant Heliothis virescens ryanodine receptor; type: cell-based; settings: 72 hr post-transfection; caffeine 10 mM; Cpd 5 3 μM
Description: (§1) Several drops of a suspension of recombinant Spodoptera frugiperda cell line, Sf9, transiently expressing insect ryanodine receptors were placed on a poly-L-lysine-coated coverslip and allowed to attach. Cells were then rinsed in physiological saline having the following composition (mM): NaCl 130; KCl 5.4; MgCl2 1.2; CaCl2 1.0; NaHCO3 4.2; NaH2P04 7.3; Glucose 10; Sucrose 63; MES 20; pH 6.3. Cells were then bathed in physiological saline containing the calcium sensitive fluoroprobe, Fura-2 AM (2 μM), and Pluronic F127 (0.002%) for 30 min. Cells were rinsed in standard physiololgical saline for at least 15 min prior to testing. Testing was conducted in standard physiological saline, as the cell lines are devoid of functional voltage-gated calcium channels.
(§2) Imaging studies were conducted using a Nikon Diaphot microscope with a 40× oil immersion objective (NA 1.3) Image acquisition and processing was performed using the MetaFluor™ imaging system from Universal Imaging Corporation (West Chester, Pa.) Calcium calibration was carried out using the Grynkiewicz equation with a dissociation constant (Kd) of 145 nM for Fura-2 (Grynkiewicz et al., 1985). Cell-attached coverslips were placed in a sealed chamber with physiological saline continuously perfused across the cells using a peristaltic pump. Test compounds solubilized in physiological saline were applied by switching the perfusate source.
(§3) For studies involving the stable recombinant Spodoptera frugiperda cell line, Sf9, (other cell lines could also be used such as Sf21, S2, etc) expressing an insect ryanodine receptor from Drosophila melanogaster, or Heliothis virescens (alternatively receptors from other species such as Myzus persicae, Peregrinus maidis, Aphis gossypii, etc) were grown in T75 (or other appropriate sized) flasks in supplemented Grace's insect medium. Cells were maintained in an incubator at 22° C. until testing. Cells were suspension-loaded with the calcium sensitive fluoroprobe, Fura-2 AM (1-2 μM) and Pluronic F127 (0.002%) in culture medium for 30 minutes under agitation. Cells were then centrifuged and the pellet resuspended in physiological saline having the following composition (mM): NaCl 130; KCl 5.4; MgCl2 1.2; CaCl2 1.0; NaHCO3 4.2; NaH2P04 7.3; Glucose 10; Sucrose 63; MES 20; pH 6.3 at approximately 150,000-200,000 cells per well (96-well plate). After a 30 minute equilibration period the cell plate was tested using a Molecular Devices' FlexStation™ system with dual wavelength excitation (340 and 380 nm) and fluorescence emission measured at 510 nm. Test and control samples were added using integrated fluidics and the intracellular calcium monitored over a 2 minute period.

[3] = biological target: T1, recombinant Drosophila melanogaster ryanodine receptor (expressed in Sf9 cells) (Drosophila melanogaster, UniProt Q24498); type: cell-based
T1 construct: His tag + attB1 + Lox footprint (N-terminal vector extension; present only if the Cre-Lox vector was the one used) (N); expressed in transfected cells
Description: as §1
Cell-attached coverslips were placed in a sealed chamber with physiological saline continuously perfused across the cells using a peristaltic pump. Test compounds solubilized in physiological saline were applied by switching the perfusate source.
as §3

[4] = tested on: native cockroach ryanodine receptors (in embryonic neuronal cells); assay: Calcium release assay, calcium imaging in primary embryonic cockroach neuronal cells; type: cell-based, Periplaneta americana
Description: Embryonic neuronal cultures of the American cockroach Periplaneta americana were established, with minor modifications, following the method of Beadle and Lees (1988) (in Cell Culture Approaches to Invertebrate Neuroscience, Academic Press, New York, pp 123-127). Briefly, 26-27-day old oothecae were collected, surface-sterilized and cut open along a line one-third of the distance below the dorsal midline. The heads were removed and placed in Schneider's Drosophila medium (Invitrogen Life Technologies™, Carlsbad, Calif.). Using fine forceps 40 brains were individually removed and placed in a small glass vial containing 700 μl of ‘5+4’ medium (‘5+4’ medium contained 5 parts Schneider's Drosophila medium plus 4 parts roach Basal Medium Eagle, with Earle's salts (BME, Sigma™, St. Louis, Mo.). Roach BME (with Earle's salts) contained 5 parts Hepes (1 M), 1 part penicillin/streptomycin and 44 parts BME (with Earle's salts). ‘5+4’ medium was made fresh and sterile filtered (0.2 μm filter) just prior to use). The brains were dissociated by sequential trituration as follows: 1) brains were passed through a standard Pasteur pipette 10 times; 2) the resulting tissue suspension was passed an additional 5 times through a Pasteur pipet with tip flamed to about half of its original diameter; 3) a final 5 passes were performed using a Pasteur pipet with tip flamed to slightly less than half of its original diameter. A repeat pipettor was used to dispense a 5 μl volume of the resulting suspension into the center of each well of a 96-well, glass-bottom plate previously coated with poly-L-lysine (0.2 mg/ml solution). Cells attached to the bottom of the wells during a 50 min incubation at 27-29° C. 150 ul of a 1:1 mixture of Leibovitz's L-15 medium and Yunker's modified Grace's medium was added, and plates were maintained in a humid incubator at 27-29° C. until use. After cells were allowed to attach wells were filled with a 1:1 mixture of Leibovitz's L-15 medium and Yunker's modified Grace's medium (Leibovitz's L-15 and Grace's medium were obtained from Invitrogen Life Technologies™, Carlsbad, Calif. and Yunker's modified Grace's medium was made with Grace's medium modified by addition of 5 mg L-methionine, 10 mg L-alanine, 182 mg MgCl26H20, 1 g Albumin Fraction V, 7 ml Fetal bovine serum, 10 ml Chick embryo extract, 2 ml Penicillin/Streptomycin, and 2 mg 20-hydroxyecdysone (prepared in ethanol prior to addition) to a final volume of 100 ml and sterile filtered (0.2 μm filter)). Cells were maintained in a high humidity incubator at 29° C. until testing.
Cells were rinsed in standard physiological saline having the following composition (mM): NaCl 190; CaCl2 9; KCl 3.1; probenicid 1; Tris buffer 10; pH 7.2. Cells were then bathed in standard physiological saline containing the calcium sensitive fluoroprobe Fluo4 AM (2 μM) and Pluronic F127 (0.002%) for 45 min. Cells were then rinsed in standard physiological saline for at least 15 min prior to testing. Within the hour prior to testing, standard physiological saline was replaced with standard physiological saline containing the organic cation channel blocker pimozide (10 μM), to inhibit influx of external calcium through voltage-gated calcium channels. The 96-well plate was placed on a PriorTm motorized stage mounted onto a Nikon Diaphot microscope and imaged using a 20× Fluor objective (NA 0.75). Individual wells from the 96-well plate were sequentially excited with light at 495 nm, and the emitted fluorescence at 530 nm was detected using a Hamamatsu ORCA ER digital camera with 2 pixel binning (image size 672×512 pixels).
Acquisition control, image processing and image analysis were conducted using Universal Imaging Corporation's MetaMorph™ imaging software (Universal Imaging, West Chester, Pa.). A series of 3 “control” images were acquired for each well. Experimental compounds were added followed by acquisition of 4 “experimental” images for each well. […]

[5] = tested on: control Sf9 cells without DNA / wild type Sf9; assay: Calcium response in control or wild-type Sf9 cells lacking recombinant receptor; type: cell-based, Spodoptera frugiperda; settings: caffeine 10 mM; Compound 5 3 μM
Description: as §1, §2, §3

SMILES: Cc1cccc(C(=O)NC(C)C)c1NC(=O)c1cc(C(F)(F)F)nn1-c1ncccc1Cl [Cpd 5, 1-(3-Chloro-2-pyridinyl)-N-[2-methyl-6-[[(1-methylethyl)amino]carbonyl]phenyl]-3-(trifluoromethyl)-1H-pyrazole-5-carboxamide]
- IC50 [1]: < 300 nM
- cytosolic [Ca2+], Sf9 transiently expressing H. virescens ryanodine receptor (FIG. 4) [2]: increase in cytosolic [Ca^2+]
- Calcium Release Threshold (nM) D. melanogaster [3]: <300 nM
- Calcium Release Threshold (nM) P. americana [4]: <300 nM
- calcium responses in control cells without DNA (FIG. 4) [5]: No significant calcium responses
